The values below come from patent publication US20200368315A1, “ANTIMICROBIAL PEPTIDES AND ADMIXTURES THEREOF SHOWING ANTIMICROBIAL ACTIVITY AGAINST GRAM-NEGATIVE PATHOGENS” (priority 2017, published 2020).

Like-named read-outs stand apart in the source and are kept apart here. No end group written: not given here.

The test system of assay [1] is A. baumannii LMG01041. The experiment in a line: microbe, parasite or virus in culture. Format: cell-based, Acinetobacter baumannii. To be noted: LMG01041. How it is done:
(§1) Escherichia coli, Klebsiella pneumoniae, Pseudomonas aeruginosa, Acinetobacter baumannii, Enterobacter aerogenes were grown in Luria-Bertani (LB) broth shaken (200 rpm) or on LB agar at 37° C. […] MICs tests were performed in duplicate by a liquid growth inhibition microdilution assays in sterilized polypropylene microtiter plates according to Wiegand and […] [27]. […] The suspension was diluted in a ratio of 1:100 using Mueller Hinton Broth (MHB) and the final inoculum is 5*10^5 CFU/mL. […] The antimicrobials were diluted serially by 1/2 one by one and 50 uL diluted bacterial suspension were added to each well to make the final volume to be 100 uL. Growth control was accomplished by remove 10 uL from well 11 and dilute 1000 times to plate 1/10 suspension on the solid medium. […] The number of colonies on the control agar plate should be around 50 to ensure the concentration of the inoculum and the effectiveness of the experiment. The lowest concentration of the antimicrobials that inhibits visible growth of the indicator is identified as MIC.

Assay [2] relates to E. coli LMG15862. The experiment in a line: microbe, parasite or virus in culture. To be noted: L-form GNP; E. coli LMG15862; Table 6. In kind it is cell-based, Escherichia coli. How it is done:
as §1

In assay [3] the test system is K. pneumoniae LMG20218. Kind of assay: microbe, parasite or virus in culture. To be noted: LMG20218. In kind it is cell-based, Klebsiella pneumoniae. How it is done: as §1
Assay [4] deals with P. aeruginosa LMG 6395. The experiment in a line: microbe, parasite or virus in culture. Format: cell-based, Pseudomonas aeruginosa. To be noted: LMG 6395. How it is done: as §1
In assay [5] the test system is E. aerogenes LMG 02094. The experiment in a line: microbe, parasite or virus in culture. In kind it is cell-based, Enterobacter aerogenes. To be noted: LMG 02094. How it is done:
as §1

Assay [6] concerns A. baumannii LMG01041. Format: cell-based, Acinetobacter baumannii. To be noted: for MICb: MIC of GNP alone; for MICbc: MIC of GNP when used with the MICac concentration of nisin; for MICac: MIC of nisin in combination with the GNP at the MICbc concentration. An excerpt: (§2) The test of synergistic effect was processed by conducting standard chequerboard broth microdilution assays. Nisin (Drug X) was loaded two fold serially diluted from row 1 to 10 in X-axis while GNPs (Drug Y) were loaded in eight two fold serially diluted concentrations from line A to H in Y-axis (FIG. 1). The original concentrations of peptides were MICs of each. Row 11 are used as growth control with no peptide was included, while row 12 with MHB medium-only wells was included as a sterility control as referred before. 50 uL fresh bacterial suspension was added to well 1-11 and final volume of each well on the plate is 100 uL.
(§3) To determine whether the combination therapy is additive, synergistic or antagonistic, fractional inhibitory concentration (FIC) indices were calculated. FICI=FICa+FICb=MICac/MICa+MICbc/MICb. The MICa/MICb is the MIC of compound A/B alone. MICac is the MIC of compound A in combination with compound B and MICbc is the MIC of compound B when it was combination with compound A. […]. FICa is FIC of compound A while FICb is FIC of compound B. The FICI is interpreted as follows: synergistic, FICI≤0.5; additive, 0.5<FICI<1; indifferent, 1<FICI<2; antagonistic, FICI>2.

Assay [7] relates to P. aeruginosa LMG 6395. Format: cell-based, Pseudomonas aeruginosa. To be noted: for MICb: MIC of GNP alone; for MICbc: MIC of GNP when used with the MICac concentration of nisin; for MICac: MIC of nisin in combination with the GNP at the MICbc concentration.
Excerpt: as §2, §3

The test system of assay [8] is K. pneumoniae LMG20218. Format: cell-based, Klebsiella pneumoniae. To be noted: for MICb: MIC of GNP alone; for MICbc: MIC of GNP when used with the MICac concentration of nisin; for MICac: MIC of nisin in combination with the GNP at the MICbc concentration.
Excerpt: as §2, §3

The subject of assay [9] is E. coli LMG15862. To be noted: for MICb: MIC of GNP alone; for MICbc: MIC of GNP in combination with vancomycin at the MICac concentration; for MICac: MIC of vancomycin in combination with the GNP at the MICbc concentration. How it is done:
(§4) The test of synergistic effect was processed by conducting standard chequerboard broth microdilution assays. […] Row 11 are used as growth control with no peptide was included, while row 12 with MHB medium-only wells was included as a sterility control as referred before. 50 uL fresh bacterial suspension was added to well 1-11 and final volume of each well on the plate is 100 uL.
(§5) The test of synergistic effect was processed as method 1.4.
as §3

In assay [10] the test system is E. aerogenes LMG 02094. To be noted: for MICb: MIC of GNP alone; for MICbc: MIC of GNP in combination with vancomycin at the MICac concentration; for MICac: MIC of vancomycin in combination with the GNP at the MICbc concentration. How it is done:
as §4, §5, §3

Assay [11] has as its system P. aeruginosa LMG 6395. To be noted: for MICb: MIC of GNP alone; for MICbc: MIC of GNP in combination with vancomycin at the MICac concentration; for MICac: MIC of vancomycin in combination with the GNP at the MICbc concentration. How it is done: as §4, §5, §3
Assay [12] relates to K. pneumoniae LMG20218. To be noted: for MICb: MIC of GNP alone; for MICbc: MIC of GNP in combination with vancomycin at the MICac concentration; for MICac: MIC of vancomycin in combination with the GNP at the MICbc concentration. How it is done:
as §4, §5, §3

Assay [13] deals with A. baumannii LMG01041. To be noted: for MICb: MIC of GNP alone; for MICbc: MIC of GNP in combination with vancomycin at the MICac concentration; for MICac: MIC of vancomycin in combination with the GNP at the MICbc concentration. How it is done:
as §4, §5, §3

Assay [14] concerns E. aerogenes LMG 02094. Format: cell-based, Enterobacter aerogenes. To be noted: for MICb: MIC of GNP alone; for MICbc: MIC of GNP when used with the MICac concentration of nisin; for MICac: MIC of nisin in combination with the GNP at the MICbc concentration.
Excerpt: as §2, §3

The test system of assay [15] is E. coli LMG15862. In kind it is cell-based, Escherichia coli. To be noted: for MICb: MIC of GNP alone; for MICbc: MIC of GNP when used with the MICac concentration of nisin; for MICac: MIC of nisin in combination with the GNP at the MICbc concentration.
Excerpt: as §2, §3

For the substance GNNRPVYIPQPRPPHPRL [GNP-1], the “MICb (MIC of GNP alone)” value is above 64 µM in assay [1], 5 µM in assay [3], above 64 µM in assay [4] and 8 µM in [5]. Besides, the “MICb (GNP concentration when used alone)” value in [2] is 0.5 µM.

For AIVQRIKKWLR-NH2 [GNP8-3], the MICb in [6] was found to be 128 µM; in [7] it was 16 µM; in [8], 24 µM; in assay [9], 12 µM; in [10], 128 µM; in assay [11], 16 µM. The MICb worked out at 24 µM in assay [12], 128 µM in assay [13], 128 µM in [14] and 12 µM in [15]. The MICbc in assay [6] is 32 µM; in [7], 8 µM; in [8] it was 3 µM; in assay [9] it was 3 µM; in assay [10] it was 16 µM; in [11] it was 8 µM. The MICbc in assay [12] came to 3 µM; in assay [13], 8 µM; in [14], 8 µM; in [15], 1.5 µM. Besides, the MICac in [6] came to 0.375 µM; in assay [7], 4.5 µM; in [8], 1.5 µM; in assay [9], 4 µM; in assay [10], 12 µM; in assay [11], 4 µM. Besides, the MICac in [12] came to 16 µM; in assay [13], 4 µM; in assay [14], 4 µM; in [15], 1.5 µM.

Take KIVQRIKKWLR-NH2 [GNP8-2]: the MICb in assay [6] turned out to be 128 µM; in assay [7], 16 µM; in [8], 32 µM; in assay [9], 16 µM; in [10], 256 µM; in [11] it was 16 µM. Besides, the MICb in assay [12] was 32 µM; in assay [13] it was 128 µM; in assay [14] it was 256 µM; in assay [15], 16 µM. The MICbc was 16 µM in assay [6]; 4 µM in assay [7]; 2 µM in [8]; 2 µM in [9]; 16 µM in assay [10]; 2 µM in [11]. In addition, the MICbc came out at 8 µM in assay [12], 4 µM in [13], 1 µM in assay [14] and 2 µM in assay [15]. Also, the MICac in assay [6] is 0.375 µM; in assay [7] it was 4.5 µM; in assay [8], 0.75 µM; in assay [9], 4 µM; in assay [10], 12 µM; in assay [11] it was 16 µM. Besides, the MICac in assay [12] stood at 16 µM; in [13] it was 4 µM; in assay [14], 4 µM; in assay [15], 1.5 µM.
